In one series the test system is gastric cancer. As to conditions: fluorouracil chemotherapy, GCa patients; cited from earlier work.
Series [1] deals with human stomach gastric carcinoma (SNU-1) xenograft. Briefly: human-tumor xenograft in athymic nude mice. Format: in vivo. As to conditions: I.P., 5-FU 5 mg/kg, Exe 100 mg/kg, 3 times/wk for 4-wks. On the technique in general: In xenograft studies the graft and the host belong to different species.

Turning to `O=c1[nH]cc(F)c(=O)[nH]1` [5-FU, fluorouracil], the “toxicity (patients with other gastrointestinal malignancies)” value with gastric cancer was greater than 50 % patients. Further, the tumor growth result in series [1] is listed as “suppress”.

The values are drawn from patent US20200016173A1 (CHINA MEDICAL UNIVERSITY, priority 2016, published 2020).
